Assay results taken from patent publication US12673945B2, “3-((8-((1H-pyrazol-4-yl)amino)imidazo[1,2-a]pyridin-3-yl)ethinyl)-n-phenylbenzamide derivative, method for preparing same, and pharmaceutical composition containing same as active ingredient for prevention or treatment of cancer” (DAEGU-GYEONGBUK MEDICAL INNOVATION FOUNDATION, priority 2020, dated 2026).

Legend:
CDC2L5 = molecular target: T1, CDC2L5 (Homo sapiens, UniProt Q14004); experiment: scanMAX Kinase panel (DiscoverX); type: binding
T1 construct: purchased DiscoverX scanMAX Kinase panel
Method: (§1) Among the example compounds of the present invention, the enzyme (kinase) selectivity of the selected compounds of Examples 1 and 4 was measured by requesting DiscoverX. At this time, the experiment was performed using a panel for scanMAX™ Kinase. The concentration of the drug treated to the enzyme was 1 μM in DMSO, and the percentage control (% control) was determined by the method shown in Equation 1 below. (Example Compound−Positive Control)/(Negative Control−Positive control)×100 [Equation 1]
In addition, if the enzyme selectivity of the compound of the present invention was less than the percentage control of 35% (<35%) for each enzyme, it was judged to have activity for the enzyme.

MUSK = molecular target: T2, MUSK (Homo sapiens, UniProt O15146); experiment: scanMAX Kinase panel (DiscoverX); type: binding; details: read-out: % Cont @ 1 uM
T2 construct: purchased DiscoverX scanMAX Kinase panel
Method: as §1

ABL1-nonphosphorylated = molecular target: T3, ABL1-nonphosphorylated (Homo sapiens, UniProt P00519); experiment: scanMAX Kinase panel (DiscoverX); type: binding; details: read-out: % Cont @ 1 uM
T3 construct: purchased DiscoverX scanMAX Kinase panel
Method: as §1

TNK2 = molecular target: T4, TNK2 (Homo sapiens, UniProt Q07912); experiment: scanMAX Kinase panel (DiscoverX); type: binding; details: read-out: % Cont @ 1 uM
T4 construct: purchased DiscoverX scanMAX Kinase panel
Method: as §1

KIT(D816H) = molecular target: T5, KIT(D816H) (Homo sapiens, UniProt P10721, D816H); experiment: scanMAX Kinase panel (DiscoverX); type: binding; details: read-out: % Cont @ 1 uM
T5 construct: purchased DiscoverX scanMAX Kinase panel
Method: as §1

IKK-alpha = molecular target: T6, IKK-alpha (Homo sapiens, UniProt O15111); experiment: scanMAX Kinase panel (DiscoverX); type: binding; details: read-out: % Cont @ 1 uM
T6 construct: purchased DiscoverX scanMAX Kinase panel
Method: as §1

FLT3(N841I) = molecular target: T7, FLT3(N841I) (Homo sapiens, UniProt P36888, N841I); experiment: scanMAX Kinase panel (DiscoverX); type: binding; details: read-out: % Cont @ 1 uM
T7 construct: purchased DiscoverX scanMAX Kinase panel
Method: as §1

EPHA3 = molecular target: T8, EPHA3 (Homo sapiens, UniProt P29320); experiment: scanMAX Kinase panel (DiscoverX); type: binding; details: read-out: % Cont @ 1 uM
T8 construct: purchased DiscoverX scanMAX Kinase panel
Method: as §1

[1] = molecular target: T9, ABL1(F317L)-phosphorylated (Homo sapiens, UniProt P00519, F317L); experiment: scanMAX Kinase panel (DiscoverX); type: binding; details: read-out: % Cont @ 1 uM
T9 construct: purchased DiscoverX
Method: as §1

MET(Y1235D) = molecular target: T10, MET(Y1235D) (Homo sapiens, UniProt P08581, Y1235D); experiment: scanMAX Kinase panel (DiscoverX); type: binding
T10 construct: purchased DiscoverX scanMAX Kinase panel
Method: as §1

IRAK4 = molecular target: T11, IRAK4 (Homo sapiens, UniProt Q9NWZ3); experiment: scanMAX Kinase panel (DiscoverX); type: binding
T11 construct: purchased DiscoverX scanMAX Kinase panel
Method: as §1

FGR = molecular target: T12, FGR (Homo sapiens, UniProt P09769); experiment: scanMAX Kinase panel (DiscoverX); type: binding; details: read-out: % Cont @ 1 uM
T12 construct: purchased DiscoverX scanMAX Kinase panel
Method: as §1

p38-delta = molecular target: T13, p38-delta (Homo sapiens, UniProt O15264); experiment: scanMAX Kinase panel (DiscoverX); type: binding; details: read-out: % Cont @ 1 uM
T13 construct: purchased DiscoverX scanMAX Kinase panel
Method: as §1

TXK = molecular target: T14, TXK (Homo sapiens, UniProt P42681); experiment: scanMAX Kinase panel (DiscoverX); type: binding; details: read-out: % Cont @ 1 uM
T14 construct: purchased DiscoverX scanMAX Kinase panel
Method: as §1

ERBB4 = molecular target: T15, ERBB4 (Homo sapiens, UniProt Q15303); experiment: scanMAX Kinase panel (DiscoverX); type: binding; details: read-out: % Cont @ 1 uM
T15 construct: purchased DiscoverX scanMAX Kinase panel
Method: as §1

MKNK2 = molecular target: T16, MKNK2 (Homo sapiens, UniProt Q9HBH9); experiment: scanMAX Kinase panel (DiscoverX); type: binding; details: read-out: % Cont @ 1 uM
T16 construct: purchased DiscoverX scanMAX Kinase panel
Method: as §1

CDKL2 = molecular target: T17, CDKL2 (Homo sapiens, UniProt Q92772); experiment: scanMAX Kinase panel (DiscoverX); type: binding; details: read-out: % Cont @ 1 uM
T17 construct: purchased DiscoverX scanMAX Kinase panel
Method: as §1

EPHB1 = molecular target: T18, EPHB1 (Homo sapiens, UniProt P54762); experiment: scanMAX Kinase panel (DiscoverX); type: binding; details: read-out: % Cont @ 1 uM
T18 construct: purchased DiscoverX scanMAX Kinase panel
Method: as §1

FLT3(D835V) = molecular target: T19, FLT3(D835V) (Homo sapiens, UniProt P36888, D835V); experiment: scanMAX Kinase panel (DiscoverX); type: binding; details: read-out: % Cont @ 1 uM
T19 construct: purchased DiscoverX scanMAX Kinase panel
Method: as §1

EGFR(L858R) = molecular target: T20, EGFR(L858R) (Homo sapiens, UniProt P00533, L858R); experiment: scanMAX Kinase panel (DiscoverX); type: binding
T20 construct: purchased DiscoverX scanMAX Kinase panel
Method: as §1

LIMK1 = molecular target: T21, LIMK1 (Homo sapiens, UniProt P53667); experiment: scanMAX Kinase panel (DiscoverX); type: binding; details: read-out: % Cont @ 1 uM
T21 construct: purchased DiscoverX scanMAX Kinase panel
Method: as §1

[2] = oral pharmacokinetic test; type: in vivo, ICR mice; details: ICR, mouse, plasma, 10 mg/kg, 10 mg/Kg PO
Method: To evaluate the pharmacokinetic properties in vivo, oral pharmacokinetic test was performed with the compounds of Comparative Examples 1 and 4 and Examples 1 and 4 using mice and rats, and the PK parameters are shown in Table 10.
ICR mice (6-7 weeks old) and SD rats (6-7 weeks old) were used for the test. The fasted group was fasted about 16 hours before oral administration, and the fed group was fasted about 4 hours before oral administration. The test drug for oral administration was used by dissolving the drug in a vehicle at a concentration of 1 mg/mL for use, and blood samples were collected (time point: 0.25, 0.5, 1, 2, 4, 8, 12, 24, 32, n=3) from the heart (mouse, 500 μL/time point) or jugular vein (rat, 120 μL/time point). Blood was centrifuged at 12,000 G at 4° C. for 2 minutes to separate plasma, and stored at −80° C. until analysis. • Vehicle A (NMP:PEG400=5:95) • Vehicle B (0.5% methyl cellulose) 6-2. Sampling and Pretreatment
To 20 μl of plasma, 180 μl of acetonitrile (including internal standard) was added. The mixture was vortexed and centrifuged for 5 minutes at 15,000 rpm at 4° C. The supernatant obtained after centrifugation was analyzed by LC-MS/MS.
PK parameters were calculated with a non-compartmental analysis model using Phoenix WinNonlin 6.4 version (Pharsight, USA) program.

Parental (Ba/F3) = experiment: Ba/F3 cell proliferation inhibition; type: cell-based; details: BaF3; 72 hours, Cell Counting Kit-8
How it was run: (§2)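 Parental and T315I-Bcr-Abl Ba/F3 cells, 1×10^4 per well, exposed 72 h at 37 °C to nine 3-fold dilutions, final 0 to 10 μM. Viability by CCK-8 after 2 h, absorbance 450 nm; GI50 fitted from percent of vehicle-treated cells.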

T315I-Bcr-Abl (Ba/F3) = experiment: Ba/F3 cell proliferation inhibition; type: cell-based; details: BaF3; 72 hours, Cell Counting Kit-8
How it was run: as §2

[3] = vehicle B (0.5% methyl cellulose)

T17 sequence (Q92772 whole entry): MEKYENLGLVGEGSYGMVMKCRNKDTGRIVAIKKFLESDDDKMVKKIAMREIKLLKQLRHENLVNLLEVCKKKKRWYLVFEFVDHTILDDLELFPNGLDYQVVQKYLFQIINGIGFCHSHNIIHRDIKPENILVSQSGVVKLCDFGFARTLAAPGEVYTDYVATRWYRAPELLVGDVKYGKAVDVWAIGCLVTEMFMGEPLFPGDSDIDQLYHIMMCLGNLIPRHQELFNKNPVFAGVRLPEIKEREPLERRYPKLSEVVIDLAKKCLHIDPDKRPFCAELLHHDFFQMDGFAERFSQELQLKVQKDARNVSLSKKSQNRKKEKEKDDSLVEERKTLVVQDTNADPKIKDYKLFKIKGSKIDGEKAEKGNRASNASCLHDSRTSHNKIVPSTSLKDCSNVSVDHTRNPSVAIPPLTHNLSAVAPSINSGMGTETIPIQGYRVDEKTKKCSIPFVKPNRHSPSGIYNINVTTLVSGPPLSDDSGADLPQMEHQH
T12 sequence (P09769 whole entry): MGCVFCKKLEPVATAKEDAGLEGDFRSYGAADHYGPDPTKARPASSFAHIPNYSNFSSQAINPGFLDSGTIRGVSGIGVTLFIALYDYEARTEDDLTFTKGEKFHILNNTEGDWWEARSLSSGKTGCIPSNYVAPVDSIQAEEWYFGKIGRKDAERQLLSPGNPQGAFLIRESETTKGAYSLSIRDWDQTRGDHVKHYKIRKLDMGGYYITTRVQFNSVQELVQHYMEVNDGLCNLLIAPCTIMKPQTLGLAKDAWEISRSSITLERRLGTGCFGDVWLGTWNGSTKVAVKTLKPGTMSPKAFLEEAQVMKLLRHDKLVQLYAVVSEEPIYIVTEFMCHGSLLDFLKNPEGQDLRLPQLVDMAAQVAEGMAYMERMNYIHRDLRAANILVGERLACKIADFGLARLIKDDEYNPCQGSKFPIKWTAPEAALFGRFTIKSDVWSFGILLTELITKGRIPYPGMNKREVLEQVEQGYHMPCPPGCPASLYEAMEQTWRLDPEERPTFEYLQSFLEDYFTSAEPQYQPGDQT
T18 sequence (P54762 18-984): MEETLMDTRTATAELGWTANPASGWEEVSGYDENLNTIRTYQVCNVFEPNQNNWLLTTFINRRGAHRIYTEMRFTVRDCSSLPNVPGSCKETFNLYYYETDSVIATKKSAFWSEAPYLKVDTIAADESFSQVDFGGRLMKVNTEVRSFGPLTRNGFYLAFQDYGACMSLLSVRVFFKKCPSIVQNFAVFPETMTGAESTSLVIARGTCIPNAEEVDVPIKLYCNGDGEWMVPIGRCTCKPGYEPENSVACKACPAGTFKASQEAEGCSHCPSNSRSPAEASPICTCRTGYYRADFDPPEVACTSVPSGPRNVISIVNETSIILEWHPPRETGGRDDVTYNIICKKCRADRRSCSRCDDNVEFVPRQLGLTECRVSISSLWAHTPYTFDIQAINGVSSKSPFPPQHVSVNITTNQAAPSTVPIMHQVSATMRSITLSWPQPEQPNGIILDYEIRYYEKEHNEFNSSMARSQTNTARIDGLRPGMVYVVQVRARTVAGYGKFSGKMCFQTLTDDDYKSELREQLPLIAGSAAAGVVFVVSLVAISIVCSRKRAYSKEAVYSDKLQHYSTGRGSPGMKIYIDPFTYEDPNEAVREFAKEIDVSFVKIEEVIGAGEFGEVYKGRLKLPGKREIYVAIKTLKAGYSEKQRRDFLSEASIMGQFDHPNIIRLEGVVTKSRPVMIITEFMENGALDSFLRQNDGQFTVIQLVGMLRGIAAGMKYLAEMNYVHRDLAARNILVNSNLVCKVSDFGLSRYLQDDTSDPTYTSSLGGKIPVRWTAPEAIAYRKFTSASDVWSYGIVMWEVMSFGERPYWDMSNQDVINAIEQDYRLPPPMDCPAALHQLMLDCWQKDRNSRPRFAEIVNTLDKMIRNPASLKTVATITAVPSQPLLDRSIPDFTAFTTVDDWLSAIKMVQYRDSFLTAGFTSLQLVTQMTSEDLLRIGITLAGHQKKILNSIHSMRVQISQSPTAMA
T1 sequence (Q14004 whole entry): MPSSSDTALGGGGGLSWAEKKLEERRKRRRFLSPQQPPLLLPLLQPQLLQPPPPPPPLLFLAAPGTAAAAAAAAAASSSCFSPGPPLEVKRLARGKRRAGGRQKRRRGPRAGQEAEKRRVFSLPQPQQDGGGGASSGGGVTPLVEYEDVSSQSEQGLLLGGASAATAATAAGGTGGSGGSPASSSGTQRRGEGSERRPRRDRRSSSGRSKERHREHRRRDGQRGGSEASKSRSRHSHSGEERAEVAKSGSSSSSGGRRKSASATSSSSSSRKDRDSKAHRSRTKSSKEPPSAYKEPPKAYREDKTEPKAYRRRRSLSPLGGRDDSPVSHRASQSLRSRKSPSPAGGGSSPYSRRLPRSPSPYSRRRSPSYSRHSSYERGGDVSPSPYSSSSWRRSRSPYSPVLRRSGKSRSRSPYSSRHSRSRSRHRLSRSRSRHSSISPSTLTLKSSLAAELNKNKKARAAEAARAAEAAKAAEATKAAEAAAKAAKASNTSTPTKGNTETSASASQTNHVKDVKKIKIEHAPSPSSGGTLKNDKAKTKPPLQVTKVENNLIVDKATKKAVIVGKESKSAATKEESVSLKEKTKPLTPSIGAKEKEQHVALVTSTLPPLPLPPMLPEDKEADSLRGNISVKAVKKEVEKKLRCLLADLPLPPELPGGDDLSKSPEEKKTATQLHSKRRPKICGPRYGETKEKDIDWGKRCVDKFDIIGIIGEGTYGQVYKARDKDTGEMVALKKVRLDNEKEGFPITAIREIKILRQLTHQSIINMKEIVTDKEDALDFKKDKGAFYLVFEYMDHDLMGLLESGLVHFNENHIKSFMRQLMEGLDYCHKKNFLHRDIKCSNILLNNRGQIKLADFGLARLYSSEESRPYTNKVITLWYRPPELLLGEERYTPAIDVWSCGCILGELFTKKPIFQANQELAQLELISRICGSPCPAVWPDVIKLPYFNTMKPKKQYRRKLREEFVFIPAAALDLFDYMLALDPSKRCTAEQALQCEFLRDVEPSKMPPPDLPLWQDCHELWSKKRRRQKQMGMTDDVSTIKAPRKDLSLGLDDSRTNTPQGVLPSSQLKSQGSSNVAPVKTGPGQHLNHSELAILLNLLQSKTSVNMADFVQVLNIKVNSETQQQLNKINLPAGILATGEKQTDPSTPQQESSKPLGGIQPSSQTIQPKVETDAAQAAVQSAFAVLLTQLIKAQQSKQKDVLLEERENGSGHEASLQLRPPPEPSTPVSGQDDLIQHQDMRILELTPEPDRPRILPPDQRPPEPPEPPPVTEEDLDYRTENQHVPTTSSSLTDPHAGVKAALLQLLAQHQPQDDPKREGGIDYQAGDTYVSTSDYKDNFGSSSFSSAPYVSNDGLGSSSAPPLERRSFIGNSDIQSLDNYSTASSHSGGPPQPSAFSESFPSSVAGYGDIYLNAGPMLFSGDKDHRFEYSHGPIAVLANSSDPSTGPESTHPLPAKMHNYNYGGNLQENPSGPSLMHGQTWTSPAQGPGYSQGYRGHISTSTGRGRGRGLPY
T16 sequence (Q9HBH9 whole entry): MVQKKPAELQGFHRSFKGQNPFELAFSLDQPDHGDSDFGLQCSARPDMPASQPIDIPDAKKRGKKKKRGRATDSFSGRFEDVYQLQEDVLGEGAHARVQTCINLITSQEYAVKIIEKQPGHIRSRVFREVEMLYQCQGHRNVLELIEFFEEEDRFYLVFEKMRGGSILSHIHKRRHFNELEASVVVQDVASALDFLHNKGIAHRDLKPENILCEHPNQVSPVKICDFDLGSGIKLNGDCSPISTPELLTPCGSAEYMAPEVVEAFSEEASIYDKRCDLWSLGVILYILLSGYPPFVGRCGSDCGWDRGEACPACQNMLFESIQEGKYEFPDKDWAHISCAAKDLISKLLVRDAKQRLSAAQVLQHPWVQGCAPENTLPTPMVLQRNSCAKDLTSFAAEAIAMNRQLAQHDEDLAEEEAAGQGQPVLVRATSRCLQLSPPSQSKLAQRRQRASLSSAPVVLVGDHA
T14 sequence (P42681 whole entry): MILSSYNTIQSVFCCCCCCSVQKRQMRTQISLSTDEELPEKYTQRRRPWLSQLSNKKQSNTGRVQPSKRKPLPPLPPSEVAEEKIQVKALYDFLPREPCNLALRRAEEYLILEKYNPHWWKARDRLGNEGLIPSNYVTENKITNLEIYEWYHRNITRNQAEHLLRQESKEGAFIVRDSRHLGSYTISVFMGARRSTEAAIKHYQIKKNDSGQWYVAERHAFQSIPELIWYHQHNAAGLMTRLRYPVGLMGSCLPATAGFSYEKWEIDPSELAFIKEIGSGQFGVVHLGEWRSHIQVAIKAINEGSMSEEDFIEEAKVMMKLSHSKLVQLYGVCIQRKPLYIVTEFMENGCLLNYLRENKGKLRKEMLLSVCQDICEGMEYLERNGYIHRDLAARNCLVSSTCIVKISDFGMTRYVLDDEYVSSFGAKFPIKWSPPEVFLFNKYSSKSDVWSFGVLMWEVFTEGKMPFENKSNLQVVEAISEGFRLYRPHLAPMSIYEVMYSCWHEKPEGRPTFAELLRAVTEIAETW
T13 sequence (O15264 whole entry): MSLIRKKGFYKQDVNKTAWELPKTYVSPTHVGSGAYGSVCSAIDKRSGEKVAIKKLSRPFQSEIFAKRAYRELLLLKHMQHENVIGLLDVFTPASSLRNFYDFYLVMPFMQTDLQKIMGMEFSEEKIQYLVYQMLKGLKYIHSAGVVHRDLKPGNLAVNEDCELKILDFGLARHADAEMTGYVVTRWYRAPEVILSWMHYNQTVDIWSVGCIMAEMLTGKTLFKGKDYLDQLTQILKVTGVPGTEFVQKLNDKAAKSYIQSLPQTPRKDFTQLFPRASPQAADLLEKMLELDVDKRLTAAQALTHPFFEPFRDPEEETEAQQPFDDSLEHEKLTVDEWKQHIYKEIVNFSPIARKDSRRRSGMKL

With `Cc1cn(-c2cc(NC(=O)c3cc(C#Cc4cnc5c(Nc6cnn(C)c6)cccn45)c(C)cc3F)cc(C(C)(C)C#N)c2)cn1` [Example 1, N-(3-(2-cyanopropane-2-yl)-5-(4-methyl-1H-imidazol-1-yl)phenyl)-2-fluoro-4-methyl-5-((8-((1-methyl-1H-pyrazol-4-yl)amino)imidazo[1,2-a]pyridin-3-yl)ethynyl)benzamide] the “% Cont @ 1 uM” value (CDC2L5) was 21%, the remaining binding at 1 µM (MUSK) was 5% and the remaining binding at 1 µM (ABL1-nonphosphorylated) was 1.9%. For the same compound, the remaining binding at 1 µM (TNK2) was 31%, the percent of control binding at 1 µM (KIT(D816H)) was 12% and the remaining binding at 1 µM (IKK-alpha) was 31%. For the same compound, the remaining binding at 1 µM (FLT3(N841I)) was 0%, the remaining binding at 1 µM (EPHA3) was 4% and the remaining binding at 1 µM [1] was 0%. For the same compound, the “% Cont @ 1 uM” value (MET(Y1235D)) was 17%, the “% Cont @ 1 uM” value (IRAK4) was 34% and the remaining binding at 1 µM (FGR) was 3.5%. The percent of control binding at 1 µM (p38-delta) was 29%, the remaining binding at 1 µM (TXK) was 1.6% and the remaining binding at 1 µM (ERBB4) was 18%. For the same compound, the remaining binding at 1 µM (MKNK2) was 0.7%, the remaining binding at 1 µM (CDKL2) was 0.7% and the remaining binding at 1 µM (EPHB1) was 17%. For the same compound, the remaining binding at 1 µM (FLT3(D835V)) was 0.25%, the “% Cont @ 1 uM” value (EGFR(L858R)) was 5.5% and the percent of control binding at 1 µM (LIMK1) was 33%. For the same compound, the AUC(0-t) ([2]; vehicle A (NMP:PEG400=5:95)) was 138000 ng·h/mL, the Cmax ([2]; vehicle A (NMP:PEG400=5:95)) was 8570 ng/mL and the half-life ([2]; vehicle A (NMP:PEG400=5:95)) was 2.5 h. For the same compound, the AUC(0-t) [2, 3] was 80300 ng·h/mL, the Cmax [2, 3] was 10000 ng/mL and the half-life [2, 3] was 2.4 h. It also gave a GI50 (Parental (Ba/F3)) greater than 5 µM and a GI50 (T315I-Bcr-Abl (Ba/F3)) of less than 0.05 µM.

In the case of `Cc1cn(-c2cc(NC(=O)c3cc(C#Cc4cnc5c(Nc6cnn(C)c6)cccn45)c(C)cc3F)cc(C(F)(F)F)c2)cn1` [Example 4, 2-fluoro-4-methyl-N-(3-(4-methyl-1H-imidazol-1-yl)-5-(trifluoromethyl)phenyl)-5-((8-((1-methyl-1H-pyrazol-4-yl)amino)imidazo[1,2-a]pyridin-3-yl)ethynyl)benzamide], the “% Cont @ 1 uM” value (CDC2L5) is reported as 60%, the remaining binding at 1 µM (MUSK) is reported as 46% and the remaining binding at 1 µM (ABL1-nonphosphorylated) is reported as 5.6%. For the same compound, the remaining binding at 1 µM (TNK2) was 91%, the percent of control binding at 1 µM (KIT(D816H)) was 53% and the remaining binding at 1 µM (IKK-alpha) was 35%. It also gave a remaining binding at 1 µM (FLT3(N841I)) of 0%, a remaining binding at 1 µM (EPHA3) of 8.4% and a remaining binding at 1 µM [1] of 1.2%. For the same compound, the “% Cont @ 1 uM” value (MET(Y1235D)) was 87%, the “% Cont @ 1 uM” value (IRAK4) was 89% and the remaining binding at 1 µM (FGR) was 12%. For the same compound, the percent of control binding at 1 µM (p38-delta) was 92%, the remaining binding at 1 µM (TXK) was 11% and the remaining binding at 1 µM (ERBB4) was 46%. The remaining binding at 1 µM (MKNK2) was 96%, the remaining binding at 1 µM (CDKL2) was 14% and the remaining binding at 1 µM (EPHB1) was 26%. For the same compound, the remaining binding at 1 µM (FLT3(D835V)) was 25%, the “% Cont @ 1 uM” value (EGFR(L858R)) was 57% and the percent of control binding at 1 µM (LIMK1) was 75%. The AUC(0-t) [2, 3] was 30400 ng·h/mL, the Cmax [2, 3] was 3360 ng/mL and the half-life [2, 3] was 2.1 h. For the same compound, the GI50 (Parental (Ba/F3)) was greater than 5 µM and the GI50 (T315I-Bcr-Abl (Ba/F3)) was less than 0.05 µM.
